Data: US7879858B2, “Substituted tetrahydropyrrolopyrazine compounds and the use thereof in pharmaceutical compositions” (Gruenenthal GmbH, priority 2006, dated 2011)

Experiments:
[1] = system: NA reuptake; assay: Inhibition of NA (noradrenaline) uptake in rat hypothalamus synaptosomes; type: biochemical; conditions: synaptosomes from hypothalamus of male rat brains
Protocol: (§1) Biological Data Inhibition of NA and 5HT Uptake
(§2) In order to be able to carry out these in vitro studies, synaptosomes are freshly isolated from areas of the rat brain. In each case a so-called “P2” fraction prepared in accordance with the instructions of Gray and Whittaker (E. G. Gray and V. P. Whittaker (1962) J. Anat. 76, 79-88) is prepared. For the NA uptake, these vesicular particles are isolated from the hypothalamus of male rat brains. A detailed description of the method can be found in the literature (M. Ch. Frink, H.-H. Hennies, W. Englberger, M. Haurand and B. Wilffert (1996) Arzneim.-Forsch./Drug Res. 46 (III), 11, 1029-1036).

[2] = molecular target: T1, Serotonin reuptake (Rattus norvegicus, UniProt P31652); assay: Inhibition of 5HT (serotonin) uptake in rat brain synaptosomes; type: biochemical; conditions: 10 μmol; synaptosomes from rat brain
T1 construct: synaptosomes are freshly isolated from areas of the rat brain; from tissue; host or cells: rat brain synaptosomes (P2 fraction)
T1 sequence (P31652 whole entry): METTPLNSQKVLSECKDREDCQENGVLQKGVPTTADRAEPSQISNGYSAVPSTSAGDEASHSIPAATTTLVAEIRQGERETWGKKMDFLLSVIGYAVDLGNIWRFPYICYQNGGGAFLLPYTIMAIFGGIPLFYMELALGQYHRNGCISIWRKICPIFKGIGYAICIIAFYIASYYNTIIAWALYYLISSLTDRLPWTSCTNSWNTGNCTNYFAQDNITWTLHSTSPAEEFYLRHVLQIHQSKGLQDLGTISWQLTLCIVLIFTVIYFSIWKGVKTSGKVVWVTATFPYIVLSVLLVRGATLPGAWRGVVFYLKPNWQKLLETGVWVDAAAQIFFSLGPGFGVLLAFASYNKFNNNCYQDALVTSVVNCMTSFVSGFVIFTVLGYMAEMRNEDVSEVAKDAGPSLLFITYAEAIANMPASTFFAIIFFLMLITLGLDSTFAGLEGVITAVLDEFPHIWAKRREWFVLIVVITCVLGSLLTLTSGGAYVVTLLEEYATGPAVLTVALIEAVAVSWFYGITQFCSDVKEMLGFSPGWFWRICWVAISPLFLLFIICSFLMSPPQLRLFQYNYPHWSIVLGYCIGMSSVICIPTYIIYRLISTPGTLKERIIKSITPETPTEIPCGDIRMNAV
Protocol: as §1, §2

| Structure (SMILES) | NA reuptake % inhibition [10 μmol] [1] [%] | inhibition at 10 µM [2] [%] |
| --- | --- | --- |
| O=C(c1ccc2c(c1)OCO2)N1CCn2cccc2C1c1cccs1 (stereo not shown) [Example 56, benzo[1,3]dioxol-5-yl-(1-thiophen-2-yl-3,4-dihydro-1H-pyrrolo[1,2-a]pyrazin-2-yl)-methanone] | 35 | 56 |
| O=C(c1ccc(F)cc1)N1CCn2cccc2C1c1ccccc1 (stereo not shown) [Example 20, (4-fluorophenyl)(1-phenyl-3,4-dihydropyrrolo[1,2-a]pyrazin-2(1H)-yl)methanone] | 33 | 32 |
| Cc1ccsc1C(=O)N1CCn2cccc2C1c1ccccc1 (stereo not shown) [Example 70, (3-methylthiophen-2-yl)(1-phenyl-3,4-dihydropyrrolo[1,2-a]pyrazin-2(1H)-yl)methanone] | 11 | 38 |
| Cc1ccccc1C1c2cccn2CCN1C(=O)c1ccc2c(c1)OCO2 (stereo not shown) [Example 12, benzo[d][1,3]dioxol-5-yl(1-o-tolyl-3,4-dihydropyrrolo[1,2-a]pyrazin-2(1H)-yl)methanone] | 22 | 34 |
| Cc1ccc(C2c3cccn3CCN2C(=O)c2ccccc2F)cc1 (stereo not shown) [Example 69, (2-fluorophenyl)(1-p-tolyl-3,4-dihydropyrrolo[1,2-a]pyrazin-2(1H)-yl)methanone] | 12 | 40 |
| O=C(c1cccc(F)c1)N1CCn2cccc2C1c1ccccc1 (stereo not shown) [Example 23, (3-fluorophenyl)(1-phenyl-3,4-dihydropyrrolo[1,2-a]pyrazin-2(1H)-yl)methanone] | 41 | 42 |
| Cc1ccccc1C(=O)N1CCn2cccc2C1c1ccccc1 (stereo not shown) [Example 26, (1-phenyl-3,4-dihydropyrrolo[1,2-a]pyrazin-2(1H)-yl)(o-tolyl)methanone] | 23 | 32 |
| O=C(c1ccco1)N1CCn2cccc2C1c1ccc(Cl)c(Cl)c1 (stereo not shown) [Example 68, [1-(3,4-dichloro-phenyl)-3,4-dihydro-1H-pyrrolo[1,2-a]pyrazin-2-yl]-furan-2-yl-methanone] | 48 | 57 |
| COc1ccccc1C(=O)N1CCn2cccc2C1c1ccc(Cl)cc1 (stereo not shown) [Example 29, (1-(4-chlorophenyl)-3,4-dihydropyrrolo[1,2-a]pyrazin-2(1H)-yl)(2-methoxyphenyl)methanone] | 21 | 34 |
| O=C(C1CC1)N1CCn2cccc2C1c1cccs1 (stereo not shown) [Example 59, cyclopropyl(1-(thiophen-2-yl)-3,4-dihydropyrrolo[1,2-a]pyrazin-2(1H)-yl)methanone] | 10 | 31 |
| O=C(c1ccccc1F)N1CCn2cccc2C1c1ccc(Cl)c(Cl)c1 (stereo not shown) [Example 63, [1-(3,4-dichloro-phenyl)-3,4-dihydro-1H-pyrrolo[1,2-a]pyrazin-2-yl]-(2-fluoro-phenyl)-methanone] | 71 | 65 |
| Cc1ccccc1C(=O)N1CCn2cccc2C1c1cccc(Cl)c1 (stereo not shown) [Example 41, (1-(3-chlorophenyl)-3,4-dihydropyrrolo[1,2-a]pyrazin-2(1H)-yl)(o-tolyl)methanone] | 35 | 37 |
| COc1ccccc1C1c2cccn2CCN1C(=O)c1ccccc1F (stereo not shown) [Example 49, (2-fluorophenyl)(1-(2-methoxyphenyl)-3,4-dihydropyrrolo[1,2-a]pyrazin-2(1H)-yl)methanone] | 12 | 47 |
| O=C(c1ccco1)N1CCn2cccc2C1c1ccc2c(c1)OCCO2 (stereo not shown) [Example 37, [1-(2,3-dihydro-benzo[1,4]dioxin-6-yl)-3,4-dihydro-1H-pyrrolo[1,2-a]pyrazin-2-yl]-furan-2-yl-methanone] | 32 | 55 |
